Counter-ions that a name gives are not always drawn. Like-named read-outs stand apart in the source and are kept apart here.
Experiments:
ROCK-II (ROKa) = ROCK-II (ROKa) (Rattus norvegicus, UniProt Q62868); test: ROCK inhibition studies (33P-ATP, Long S6 substrate peptide); type: biochemical; conditions: for remaining activity at 10 µM: 0.5 h, supplementary CSV, read-out: ROCK2 activity @ 10microM; for IC50: Table 3, read-out: ROCK2 inhibition IC50; for ROCK2 inhibition potency compared with fasudil: in words
Chain of ROCK-II (ROKa) (Q62868 2-543 limits assumed): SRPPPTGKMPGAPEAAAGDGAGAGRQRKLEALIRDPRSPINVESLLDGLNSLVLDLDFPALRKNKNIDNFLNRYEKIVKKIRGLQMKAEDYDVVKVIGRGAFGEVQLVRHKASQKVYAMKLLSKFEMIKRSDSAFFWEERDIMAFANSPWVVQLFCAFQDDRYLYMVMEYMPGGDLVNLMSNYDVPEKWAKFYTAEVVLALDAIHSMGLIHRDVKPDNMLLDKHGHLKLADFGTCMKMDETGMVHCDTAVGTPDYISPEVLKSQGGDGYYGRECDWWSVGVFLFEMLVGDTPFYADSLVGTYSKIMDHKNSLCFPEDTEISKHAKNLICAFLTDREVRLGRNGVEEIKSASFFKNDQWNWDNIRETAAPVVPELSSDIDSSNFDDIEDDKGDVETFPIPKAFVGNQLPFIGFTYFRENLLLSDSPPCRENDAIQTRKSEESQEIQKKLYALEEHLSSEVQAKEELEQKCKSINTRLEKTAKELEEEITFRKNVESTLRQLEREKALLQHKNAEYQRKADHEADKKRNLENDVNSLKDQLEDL
Experimental: ROCK-II (ROKa) (5–20 mU diluted in 50 mM Tris pH 7.5, 0.1 mM EGTA, 0.1% 2-mercaptoethanol, and 1 mg/mL BSA) was assayed against the Long S6 substrate peptide ([…]) in a final volume of 25.5 μL containing 50 mM Tris pH 7.5, 0.1 mM EGTA, 30 μM Long S6 substrate peptide, 10 mM magnesium acetate, and 0.02 mM [33P-g-ATP] (50–1000 cpm/pmol) and incubated for 30 min at room temperature. Assays were stopped by addition of 5 μL of 0.5 M (3%) orthophosphoric acid and then harvested onto P81 Unifilter plates with a wash buffer of 50 mM orthophosphoric acid.

[1] = DPPH radical scavenging assay; type: physicochemical; conditions: for EC50: 80% MeOH, 30 min, 517 nm, read-out: Radical scavenging activity EC50 (DPPH method); for IC50: supplementary CSV
Experimental: The antioxidant activity was determined by the 2,2-diphenyl-1-picrylhydrazyl hydrate (DPPH) assay.[65]−[67] All the measurements were performed in an 80% MeOH solution, with the final reaction volume being 3 mL. A stock of DPPH solution in DMSO (10^–2 M) was prepared and stored at −20 °C, and the same procedure was performed with the antioxidant solution. Then, the DPPH stock solution was diluted to 2 mL with a final concentration of 150 μM (final volume of 3 mL and final concentration of 100 μM). The antioxidant stock was sequentially diluted to 1 mL at 3, 9, 30, 90, and 300 μM (final volume of 3 mL and final concentrations of 1, 3, 10, 30, and 100 μM). The mixture was incubated at room temperature for 30 min. Once this time had passed, the absorbance was measured in a spectrophotometer at 517 nm. Trolox, caffeic acid, and ferulic acid were used as a standard (1, 3, 10, 30, and 100 μM final concentrations). A blank using 80% MeOH solution instead of the corresponding antioxidant was used in each assay. Two independent measurements of each sample were performed. Data were processed using Origin software, and sigmoidal fitting according to the DoseResp function was performed to extrapolate the IC50 (μM) of each antioxidant.

MTT viability assay = type: cell-based, human; conditions: human, HEK293T cells, HEK293T, 16 h, read-out: Cell viability (MTT)
Experimental: (§1) HEK293T cells were plated in 24-well culture plates (75,000 cells/well) and incubated in a CO2 incubator. The next day, treatment was given according to the experimental requirement. Sixteen hours later, 50 μL of MTT solutions from the stock (5 mg/mL) was added, and cells were incubated in a CO2 incubator in the dark for 2 h. The medium was removed, and formazan crystals formed by the cells were dissolved using 500 μL of DMSO followed by transfer in 96-well plates. The absorbance was read at a 570 nm wavelength on a multiwell plate reader.[70]

HEK293T cells = test: MTT viability assay; type: cell-based, human; conditions: 20 µM, Table S3
Experimental: as §1

NRF2 = test: 3×ARE-LUC luciferase reporter assay; type: cell-based, human; conditions: for fold induction at 20 µM / fold induction at 6 µM / fold induction at 60 µM: Homo sapiens, 16 h; for NRF2 induction, CD (concentration needed to double luciferase expression): 3×ARE-LUC; for activation of the NRF2 reporter: in words, 6, 20 and 60 μM
Experimental: Transient transfections of HEK293T cells were performed with the expression vectors for TK-Renilla (Promega, Madison, […]) and the expression vector ARE-LUC (Dr. J. Alam, Dept. of Molecular Genetics, Ochsner Clinic Foundation, New Orleans, LA). Cells were seeded on 24-well plates (75,000 cells per well), cultured for 16 h, and transfected using calcium phosphate. Eight hours after transfections, cells were treated with 3 different concentrations of the compounds (6, 20, and 60 μM). […] After 16 h, the cells were lysed and assayed with a dual-luciferase assay system (Promega) according to the manufacturer’s instructions. Relative light units were measured in a GloMax 96 microplate luminometer with dual injectors (Promega).

[2] = 20 microM, supplementary CSV, read-out: NRF2 induction @ 20 microM (fold change)
[3] = HEK-293T, HEK293T, read-out: Luciferase assay response
[4] = HEK-293T, 20 µM, HEK293T, read-out: Luciferase assay response

| SMILES | remaining activity at 10 µM (ROCK-II (ROKa)) | IC50 (ROCK-II (ROKa)) | ROCK2 inhibition potency compared with fasudil (ROCK-II (ROKa)) | EC50 [1] | IC50 [1] | viability at 16 h, 20 µM (MTT viability assay) | viability at 16 h, 60 µM (MTT viability assay) | MTT (%) (HEK293T cells) | fold induction at 20 µM (NRF2; [2]) | fold induction at 6 µM (NRF2; [3]) | fold induction at 20 µM (NRF2; [4]) | fold induction at 60 µM (NRF2; [3]) | melting point | NRF2 induction, CD (concentration needed to double luciferase expression) (NRF2; HEK293T) | activation of the NRF2 reporter (NRF2) |
| --- | --- | --- | --- | --- | --- | --- | --- | --- | --- | --- | --- | --- | --- | --- | --- |
| O=C(/C=C/c1ccc(O)c(O)c1)N1CCN(S(=O)(=O)c2cccc3cnccc23)CC1 [Compound 1a, 3-(3,4-Dihydroxyphenyl)-1-(4-(isoquinolin-5-ylsulfonyl)piperazin-1-yl)prop-2-en-1-one] | 13.7 ± 1% | 0.79 µM | potency similar to the reference compound | 9.93 µM | 11.9 ± 4.9 µM | 90.9 ± 1.63% | 100.7 ± 0.999% | < 20% | 0.8 ± 0.02 | 0.7 ± 0.06 | 0.8 ± 0.02 | 1.2 ± 0.08 | 161 to 162 °C | – | – |
| O=C(/C=C/c1ccc(O)c(O)c1)N1CCCN(S(=O)(=O)c2cccc3cnccc23)CC1 [Compound 1b, 3-(3,4-Dihydroxyphenyl)-1-(4-(isoquinolin-5-ylsulfonyl)-1,4-diazepan-1-yl)prop-2-en-1-one] | 7.8 ± 1% | 2.13 µM | – | 10 µM | 9.9 ± 1.4 µM | 96.9 ± 1.13% | 84.7 ± 1.83% | – | 3.1 ± 0.04 | – | 3.1 ± 0.04 | 4.1 ± 0.06 | – | 12 µM | dose-dependent activation |
| O=C(CCc1ccc(O)c(O)c1)N1CCN(S(=O)(=O)c2cccc3cnccc23)CC1 [Compound 1c, 3-(3,4-Dihydroxyphenyl)-1-(4-(isoquinolin-5-ylsulfonyl)piperazin-1-yl)propan-1-one] | 32.6 ± 10.3% | 0.32 µM | potency similar to the reference compound | 10.1 µM | 11.9 ± 3 µM | 104 ± 1.2% | 104.8 ± 0.434% | – | 2.2 ± 0.09 | 1.7 ± 0.09 | 2.2 ± 0.09 | 5.8 ± 0.23 | 158 to 159 °C | 15 µM | dose-dependent activation |
| COc1cc(/C=C/C(=O)N2CCN(S(=O)(=O)c3cccc4cnccc34)CC2)ccc1O [Compound 1e, 3-(4-Hydroxy-3-methoxyphenyl)-1-(4-(isoquinolin-5-ylsulfonyl)piperazin-1-yl)prop-2-en-1-one] | 47 ± 15.1% | 2.33 µM | – | 6.42 µM | – | 60.5 ± 2.73% | 55.9 ± 1.08% | – | 1.1 ± 0.16 | 1.2 ± 0.11 | 1.1 ± 0.16 | 1.2 ± 0.14 | > 230 °C | – | – |
| COc1cc(/C=C/C(=O)N2CCCN(S(=O)(=O)c3cccc4cnccc34)CC2)ccc1O [Compound 1f, 3-(4-Hydroxy-3-methoxyphenyl)-1-(4-(isoquinolin-5-ylsulfonyl)-1,4-diazepan-1-yl)prop-2-en-1-one] | 30.3 ± 7.4% | 2.61 µM | – | 9.61 µM | – | 93.9 ± 2.27% | 77.9 ± 3.9% | < 20% | 0.8 ± 0.02 | 0.7 ± 0.06 | 0.8 ± 0.02 | 1.2 ± 0.08 | – | – | – |
| COc1cc(CCC(=O)N2CCN(S(=O)(=O)c3cccc4cnccc34)CC2)ccc1O [Compound 1g, 3-(4-Hydroxy-3-methoxyphenyl)-1-(4-(isoquinolin-5-ylsulfonyl)piperazin-1-yl)propan-1-one] | 53 ± 8.8% | > 10 µM | – | 10.3 µM | – | 93.7 ± 2.2% | 87.5 ± 2.32% | – | 0.8 ± 0.04 | 1 ± 0.01 | 0.8 ± 0.04 | 1.5 ± 0.22 | 156 to 157 °C | – | – |
| COc1cc(CCC(=O)N2CCCN(S(=O)(=O)c3cccc4cnccc34)CC2)ccc1O [Compound 1h, 3-(4-Hydroxy-3-methoxyphenyl)-1-(4-(isoquinolin-5-ylsulfonyl)-1,4-diazepan-1-yl)propan-1-one] | 27.4 ± 1.4% | 0.9 µM | – | 12 µM | – | 99.4 ± 1.78% | 88.2 ± 2.43% | – | 0.9 ± 0.02 | 1.2 ± 0.09 | 0.9 ± 0.02 | 1.2 ± 0.03 | – | – | – |
| COC(=O)/C=C/C(=O)OC [DMF, dimethyl fumarate, reference compound] | – | – | – | – | – | 90.4 ± 6.96% | 92.21 ± 0.462% | – | 4.9 ± 0.35 | – | 4.9 ± 0.35 | – | – | – | – |
| C[S+]([O-])CCCCN=C=S (centres unmarked) [SFN, sulforaphane, reference compound] | – | – | – | – | – | – | – | – | – | 4 ± 0.08 | – | – | – | – | – |
| Cc1c(C)c2c(c(C)c1O)CCC(C)(C(=O)O)O2 (centres unmarked) [Trolox, reference compound] | – | – | – | – | 12 ± 2.3 µM | – | – | – | – | – | – | – | – | – | – |
| O=C(O)/C=C/c1ccc(O)c(O)c1 [caffeic acid, reference compound] | – | – | – | 12.1 µM | – | – | – | – | – | – | – | – | – | – | – |
| O=S(=O)(c1cccc2cnccc12)N1CCCNCC1 [fasudil, 5-((1,4-Diazepan-1-yl)sulfonyl)isoquinoline, reference compound] | – | – | – | – | – | 92.1 ± 3.71% | 83.43 ± 0.715% | – | 1 ± 0.06 | 1.3 ± 0.21 | 1 ± 0.06 | 2.9 ± 0.49 | – | – | low activity |
| COc1cc(/C=C/C(=O)O)ccc1O [ferulic acid, reference compound] | – | – | – | 22.8 µM | – | – | – | – | – | – | – | – | – | – | – |

Source: publication PMC9132363 (Journal of Medicinal Chemistry, 2022)
